# Assay results from patent publication US20240287138A1, “CYCLIC PEPTIDES FOR INHIBITING TNF RECEPTOR 1 ACTIVITY” (Merck Sharp & Dohme LLC, priority 2023, published 2024).
# Numbered stars: 1 amine (or outer) side, 2 acyl side, 3 side chain; on linkers, the order of the positions; unused ones are H or OH. Bridge positions count the residues as written; N and C are the ends. Square brackets hold non-standard residues; d marks the D form. Peptide text beside a SMILES is read from it. Trp(βS-Me,7-OMe) = COc1cccc2c([C@H](C)[C@H](N)C(=O)O)c[nH]c12; Trp(1-CH2COOH) = N[C@@H](Cc1cn(CC(=O)O)c2ccccc12)C(=O)O; Trp(βS-Me) = C[C@@H](c1c[nH]c2ccccc12)[C@H](N)C(=O)O; Phe(4-NHCONH2) = NC(=O)Nc1ccc(C[C@H](N)C(=O)O)cc1; Trp(7-Br) = N[C@@H](Cc1c[nH]c2c(Br)cccc12)C(=O)O; Trp(7-CN) = N#Cc1cccc2c(C[C@H](N)C(=O)O)c[nH]c12; Trp(7-Cl) = N[C@@H](Cc1c[nH]c2c(Cl)cccc12)C(=O)O; Phe(3-CONH2) = NC(=O)c1cccc(C[C@H](N)C(=O)O)c1; Phe(4-CONH2) = NC(=O)c1ccc(C[C@H](N)C(=O)O)cc1; Phe(4-COOH) = N[C@@H](Cc1ccc(C(=O)O)cc1)C(=O)O; Trp(7-aza) = N[C@@H](Cc1c[nH]c2ncccc12)C(=O)O; dPro(4S-NH2) = N[C@@H]1CN[C@@H](C(=O)O)C1; Pip(5R-OH) = O=C(O)[C@@H]1CC[C@@H](O)CN1; αMeW = C[C@](N)(Cc1c[nH]c2ccccc12)C(=O)O; X1 = O=C([C@@H]1CC[C@H](N[*:1])C1)[*:2]; Orn(N3) = [N-]=[N+]=NCCC[C@H](N)C(=O)O; Pip(4-aza) = O=C(O)[C@@H]1CNCCN1; 4Pal = N[C@@H](Cc1ccncc1)C(=O)O; NMeE = CN[C@@H](CCC(=O)O)C(=O)O; dHyp = O=C(O)[C@H]1C[C@H](O)CN1; X61 = O=C(CN(CCCO)[*:1])[*:2]; Ahp(2) = CCCCC[C@H](N)C(=O)O; Pip = O=C(O)[C@@H]1CCCCN1; αMeS = C[C@](N)(CO)C(=O)O; Nle = CCCC[C@H](N)C(=O)O; Dap = NC[C@H](N)C(=O)O; Sar = CNCC(=O)O
# Target: T1, human soluble TNFR1 (sTNFR1) (Homo sapiens, UniProt P19438)
# T1 construct: made in house; host or cells: Sf21 (baculovirus)
# T1 sequence (P19438 with tags, fused parts or gaps): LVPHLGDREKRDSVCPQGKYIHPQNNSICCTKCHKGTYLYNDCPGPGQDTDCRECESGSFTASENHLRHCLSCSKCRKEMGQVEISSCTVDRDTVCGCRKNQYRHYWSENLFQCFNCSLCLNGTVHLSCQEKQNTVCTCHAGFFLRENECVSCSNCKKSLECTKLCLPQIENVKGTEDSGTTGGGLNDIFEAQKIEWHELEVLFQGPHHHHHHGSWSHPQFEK
# Test: Human sTNFR1-peptide displacement assay (LanthaScreen Eu TR-FRET binding assay)
# Experimental: A. Procedure for Human sTNFR1-Peptide Displacement Assay
# The affinity was determined using LanthaScreen Eu-based time-resolved fluorescence resonance energy transfer (TR-FRET)-based binding assay.
# A TR-FRET assay measuring the displacement of biotinylated peptide SEQ ID NO. 1 from human soluble TNFR1 (sTNFR1) in a pre-formed complex by a macrocyclic peptide yields the affinity (Kd^app) of the cyclic peptide for sTNFR1. The reagents for the assay include: the C′-terminally 6His-tagged sTNFR1 (residues 1-211) protein purified from a Sf21 baculovirus expression system, the biotin-tagged B0372 peptide described in section “Preparation of Final Compounds”, part E, the LanthaScreen™ anti-His Tag Europium donor (Life Technologies Corporation (San Diego, CA), cat. #PV5597), and a streptavidin-conjugate Alexa Fluor™ 647 acceptor (Invitrogen (Waltham, MA), cat. #S32357). Time-resolved TR-FRET is achieved when sTNFR1 is bound to biotinylated peptide SEQ ID NO. 1 through coupling of the donor and acceptor FRET pair.
# 100 nM biotinylated peptide SEQ ID NO. […] 100 nM biotinylated peptide SEQ ID NO. 1 was chosen as it reflects the ˜Kd for this complex. After 30 min at ambient temperature, each test peptide (2 mM stock in DMSO) is titrated in a 20 point, ˜3-fold discrete dose-response using an acoustic-dispense liquid handler. Specifically, 80 nL of peptide/DMSO is transferred into a ProxiPlate-384 Plus 384-well assay plate (PerkinElmer, cat. #6008289). To this plate, 8 μL of the previously formed sTNFR 1-biotinylated peptide SEQ ID NO. 1 complex is added and allowed to reach binding equilibrium with the test peptide at ambient temperature for 90 min.
# The TR-FRET signal is measured with the following EnVision® settings: excitation laser at 337 nm; emission1=615 nm, emission2=665 nm, LANCE/DELFIA dichroic mirror, delay time=[…]. The signal of each well is determined as the ratio of the emission at 665 nm to that at 615 nm. Percent displacement is determined by normalization to control wells containing DMSO (0%) or a saturating concentration of a displaceable peptide (100%). The %-effect as a function of peptide concentration is fit to a five-parameter logistic fit based on the Morrison equation to account for tight binding kinetics.
SMILES,Kd [nM],IC50 [nM]
"CCCCC[C@@H]1NC(=O)[C@@H]2CC[C@@H](C2)NC(=O)[C@H]([C@@H](C)c2c[nH]c3c(OC)cccc23)NC(=O)CN(C)C(=O)[C@H](Cc2cccc(C(N)=O)c2)NC(=O)[C@H](Cc2ccc(C(=O)O)cc2)NC(=O)[C@](C)(CO)NC(=O)[C@H](Cc2c[nH]c3c(Br)cccc23)NC(=O)[C@H](Cc2ccc(C(=O)O)cc2)NC(=O)[C@H](CC(N)=O)NC(=O)[C@H]2C[C@H](O)CN2C(=O)[C@H](Cc2c[nH]c3ccccc23)NC(=O)[C@@H]2CNCCN2C(=O)[C@H](Cc2ccncc2)NC1=O [SEQ ID NO. 85] (cyclo([4Pal][Pip(4-aza)]W[dHyp]N[Phe(4-COOH)][Trp(7-Br)][αMeS][Phe(4-COOH)][Phe(3-CONH2)][Sar][Trp(βS-Me,7-OMe)][X1][Ahp(2)]))",0.11,–
C[C@@H](c1c[nH]c2ccccc12)[C@@H]1NC(=O)[C@H](CN)NC(=O)[C@H](Cc2ccc(O)cc2)NC(=O)[C@H](CCCN=[N+]=[N-])NC(=O)CSC[C@@H](C(N)=O)NC(=O)[C@](C)(Cc2c[nH]c3ccccc23)NC(=O)CN(C)C(=O)[C@H](Cc2c[nH]cn2)NC(=O)[C@H](Cc2ccc(C(=O)O)cc2)NC(=O)[C@](C)(CO)NC(=O)[C@H](Cc2c[nH]c3c(Cl)cccc23)NC(=O)[C@H](Cc2ccncc2)NC(=O)[C@H](CC(N)=O)NC(=O)[C@H]2CCCN2C1=O [SEQ ID NO. 146] ({CH2CO}-[Orn(N3)]Y[Dap][Trp(βS-Me)][dP]N[4Pal][Trp(7-Cl)][αMeS][Phe(4-COOH)]H[Sar][αMeW]C-NH2; thioether N-14),–,0.59
"CCCCC[C@@H]1NC(=O)[C@@H]2CC[C@@H](C2)NC(=O)[C@H]([C@@H](C)c2c[nH]c3c(OC)cccc23)NC(=O)CN(C)C(=O)[C@H](Cc2cn(CC(=O)O)c3ccccc23)NC(=O)[C@H](Cc2ccc(C(N)=O)cc2)NC(=O)[C@](C)(CO)NC(=O)[C@H](Cc2c[nH]c3c(C#N)cccc23)NC(=O)[C@H](Cc2ccc(C(=O)O)cc2)NC(=O)[C@H](CC(N)=O)NC(=O)[C@H]2C[C@H](N)CN2C(=O)[C@H](Cc2c[nH]c3ccccc23)NC(=O)[C@@H]2CC[C@@H](O)CN2C(=O)[C@H](Cc2ccncc2)NC1=O [SEQ ID NO. 150] (cyclo([4Pal][Pip(5R-OH)]W[dPro(4S-NH2)]N[Phe(4-COOH)][Trp(7-CN)][αMeS][Phe(4-CONH2)][Trp(1-CH2COOH)][Sar][Trp(βS-Me,7-OMe)][X1][Ahp(2)]))",0.23,–
"CCCC[C@@H]1NC(=O)[C@@H]2CC[C@@H](C2)NC(=O)[C@H]([C@@H](C)c2c[nH]c3c(OC)cccc23)NC(=O)CN(C)C(=O)[C@H](Cc2ccc(O)cc2)NC(=O)[C@H](Cc2ccc(C(N)=O)cc2)NC(=O)[C@](C)(CO)NC(=O)[C@H](Cc2c[nH]c3c(Cl)cccc23)NC(=O)[C@H](Cc2ccc(NC(N)=O)cc2)NC(=O)[C@H](CC(N)=O)NC(=O)[C@H](CCC(=O)O)N(C)C(=O)[C@H](Cc2c[nH]c3ccccc23)NC(=O)[C@@H]2CC[C@@H](O)CN2C(=O)[C@H](Cc2ccncc2)NC1=O [SEQ ID NO. 165] (cyclo([4Pal][Pip(5R-OH)]W[NMeE]N[Phe(4-NHCONH2)][Trp(7-Cl)][αMeS][Phe(4-CONH2)]Y[Sar][Trp(βS-Me,7-OMe)][X1][Nle]))",0.18,–
"CCCC[C@@H]1NC(=O)CSC[C@@H](C(N)=O)NC(=O)[C@H]([C@@H](C)c2c[nH]c3c(OC)cccc23)NC(=O)CN(C)C(=O)[C@H](Cc2ccc(O)cc2)NC(=O)[C@H](Cc2ccc(C(=O)O)cc2)NC(=O)[C@](C)(CO)NC(=O)[C@H](Cc2c[nH]c3c(Cl)cccc23)NC(=O)[C@H](Cc2ccncc2)NC(=O)[C@H](CC(N)=O)NC(=O)CN(CCCO)C(=O)[C@H](Cc2c[nH]c3ncccc23)NC(=O)[C@@H]2CCCCN2C(=O)[C@H](Cc2ccncc2)NC1=O [SEQ ID NO. 170] ({CH2CO}-[Nle][4Pal][Pip][Trp(7-aza)][X61]N[4Pal][Trp(7-Cl)][αMeS][Phe(4-COOH)]Y[Sar][Trp(βS-Me,7-OMe)]C-NH2; thioether N-14)",0.56,0.6
